Data on 1 molecule can be found in US20070249720A1, “Thiourea Derivative-Containing Pharmaceutical Composition Having Improved Solubility and Bioavailability” (priority 2003, published 2007).

One may read the solubility as the dissolved amount per volume that the medium holds. As a reminder, the bioavailability is dose-corrected exposure relative to a reference, in per cent.

≈ marks a conversion by molar mass, not a printed value.

Series [1] in a line: Solubility of Compound 1 in 2-hydroxypropyl-β-cyclodextrin solution in glycine buffer (pH 10.5) (HPLC). It is filed as physicochemical. The conditions noted are these: thermodynamic from solid, stirred 72 hours. On the procedure:
0.4 g of 1-(4-t-butylbenzyl)-3-(3-fluoro-4-methanesulfonylaminobenzyl)thiourea (Compound 1) was added to each 10 ml of 0, 1.5, 3.5, 7.0, 14.0 and 28.0 w/v % 2-hydroxypropyl-β-cyclodextrin solution in glycine buffer (pH 10.5). The resulting mixture was stirred for 72 hours, filtered through a 0.2 micrometer filter paper.
The concentration of Compound 1 in the filtrate was determined by high performance liquid chromatography (HPLC) and the solubility of Compound 1 depending on the concentration of 2-hylroxypropyl-β-cyclodextrin is presented in Table 2.

Series [2] is described as follows: Solubility of Compound 1 in 95% ethanol solution containing 2-hydroxypropyl-β-cyclodextrin (HPLC). Format: physicochemical. The conditions noted are these: organic solvent or mixture, thermodynamic from solid, stirred 72 hours. The protocol: 5 g of 1-(4-t-butylbenzyl)-3-(3-fluoro-4-methanesulfonylaminobenzyl)thiourea (Compound 1) was added to 100 ml of 95% ethanol solution containing 0, 1.0, 2.0, 5.0, 10.0 or 20.0 w/v % of 2-hylroxypropyl-β-cyclodextrin, and the mixture was stirred for 72 hours and then filtered through a 0.2 micrometer filter paper. The concentration of Compound 1 in the filtrate was determined by high performance liquid chromatography (HPLC) and the solubility of Compound 1 depending on the concentration of 2-hydroxypropyl-β-cyclodextrin is presented in Table 4.

Series [3] is described as follows: Solubility of Compound 1 in aqueous 2-hydroxypropyl-β-cyclodextrin solutions (HPLC). It is filed as physicochemical. The conditions noted are these: aqueous 2-hydroxypropyl-β-cyclodextrin solution, thermodynamic from solid, stirred 72 hours. On the procedure: 0.4 g of 1-(4-t-butylbenzyl)-3-(3-fluoro-4-methanesulfonylaminobenzyl)thiourea (Compound 1) was added to each 10 ml of 0, 1.5, 3.5, 7.0, 14.0 and 28.0 w/v % aqueous solutions of 2-hydroxypropyl-β-cyclodextrin. The resulting mixture was stirred for 72 hours, filtered through a 0.2 micrometer filter paper. The concentration of Compound 1 in the filtrate was determined by high performance liquid chromatography (HPLC) and the solubility of Compound 1 depending on the concentration of 2-hydroxypropyl-β-cyclodextrin is presented in Table 1.

A short description of series [4]: Comparative dissolution test (Paddle method, Korean pharmacopoeia). Format: physicochemical. The note with it: water as release solvent, 37° C., 50 rpm, FIG. 1. On the procedure:
1-(4-t-butylbenzyl)-3-(3-fluoro-4-methanesulfonylaminobenzyl)thiourea (Compound 1) and the tablet prepared in Formulation Example 2 were subjected to test in accordance with dissolution test method II (Paddle method) described in Korean pharmacopoeia using water as a release solvent.
3 ml samples were taken at a given time interval under the condition of 37° C. and 50 rpm, and filtered through a 0.45 micrometer filter. The concentration of Compound 1 in each sample was determined by HPLC.

Series [5] can be described thus: Test for pharmacokinetics after oral administration to rats. Format: in vivo. The conditions noted are these: orally administered, 10 mg/kg. From the text:
1-(4-t-Butylbenzyl)-3-(3-fluoro-4-methanesulfonylaminobenzyl)thiourea (Compound 1) and the liquid formulation prepared in Formulation Example 3 were each orally administered to rats, and the changes in the plasma drug concentration were monitored according to a set time schedule. Each experimental animal group consisted of four male rats. After the rats were anesthetized with ether and operated for inserting a PE-50 polyethylene tube into the femoral artery, the suspension of Compound 1 in 0.5% sodium carboxymethylcellulose solution and the liquid formulation of Formulation Example 3 were each orally administered to the rats. At 15, 30, 60, 120, 210, 300 and 480 minutes after the administration, 150 micro liter blood samples were taken from the rats. Each blood sample was centrifuged to separate plasma, which was then subjected to HPLC to determine the concentration of Compound 1 in plasma.

Consider `CC(C)(C)c1ccc(CNC(=S)NCc2ccc(NS(C)(=O)=O)c(F)c2)cc1` [Compound 1, 1-(4-t-butylbenzyl)-3-(3-fluoro-4-methanesulfonylaminobenzyl)thiourea], for which the solubility at 72 h is 0.05 mg/mL (≈ 0.118 mM) in series [1] (pH 10.5, aqueous buffer, 0 w/v % 2-hydroxypropyl-β-cyclodextrin); 2.7 mg/mL (≈ 6.37 mM) in series [1] (pH 10.5, aqueous with cosolvent or surfactant or cyclodextrin, 1.5 w/v % 2-hydroxypropyl-β-cyclodextrin); 4.8 mg/mL (≈ 11.3 mM) in series [1] (pH 10.5, aqueous with cosolvent or surfactant or cyclodextrin, 3.5 w/v % 2-hydroxypropyl-β-cyclodextrin); 9.62 mg/mL (≈ 22.7 mM) in series [1] (pH 10.5, aqueous with cosolvent or surfactant or cyclodextrin, 7.0 w/v % 2-hydroxypropyl-β-cyclodextrin); 18 mg/mL (≈ 42.5 mM) in series [1] (pH 10.5, aqueous with cosolvent or surfactant or cyclodextrin, 14.0 w/v % 2-hydroxypropyl-β-cyclodextrin); 32.5 mg/mL (≈ 76.7 mM) in series [1] (pH 10.5, aqueous with cosolvent or surfactant or cyclodextrin, 28.0 w/v % 2-hydroxypropyl-β-cyclodextrin). Also, the solubility at 72 h in series [2] (0 w/v % 2-hydroxypropyl-β-cyclodextrin) is 19.7 mg/mL (≈ 46.6 mM); in series [2] (1.0 w/v % 2-hydroxypropyl-β-cyclodextrin), 21.2 mg/mL (≈ 50.1 mM); in series [2] (2.0 w/v % 2-hydroxypropyl-β-cyclodextrin), 22.7 mg/mL (≈ 53.5 mM); in series [2] (5.0 w/v % 2-hydroxypropyl-β-cyclodextrin), 27.2 mg/mL (≈ 64.3 mM); in series [2] (10.0 w/v % 2-hydroxypropyl-β-cyclodextrin) it was 34.1 mg/mL (≈ 80.6 mM); in series [2] (20.0 w/v % 2-hydroxypropyl-β-cyclodextrin) it was 43.5 mg/mL (≈ 103 mM). The solubility at 72 h was found to be 0.4 mg/mL (≈ 0.944 mM) in series [3] (aqueous with cosolvent or surfactant or cyclodextrin, 1.5 w/v % 2-hydroxypropyl-β-cyclodextrin); 1.04 mg/mL (≈ 2.46 mM) in series [3] (aqueous with cosolvent or surfactant or cyclodextrin, 3.5 w/v % 2-hydroxypropyl-β-cyclodextrin); 4.18 mg/mL (≈ 9.87 mM) in series [3] (aqueous with cosolvent or surfactant or cyclodextrin, 7.0 w/v % 2-hydroxypropyl-β-cyclodextrin); 12.2 mg/mL (≈ 28.9 mM) in series [3] (aqueous with cosolvent or surfactant or cyclodextrin, 14.0 w/v % 2-hydroxypropyl-β-cyclodextrin); 29 mg/mL (≈ 68.4 mM) in series [3] (aqueous with cosolvent or surfactant or cyclodextrin, 28.0 w/v % 2-hydroxypropyl-β-cyclodextrin); 0.01 mg/mL (≈ 0.0236 mM) in series [3] (water, 0 w/v % 2-hydroxypropyl-β-cyclodextrin). Further, the “percent dissolution of drug” value in series [4] is “insoluble in water”. Also, in series [5] (male, rat, plasma, po, read-out: BA: Bioavailability), the bioavailability came to 16.5%. Also, the Cmax in series [5] (male, rat, plasma, po, read-out: Cmax: Maximum plasma concentration) amounted to 0.67 µg/mL. Moreover, the Tmax in series [5] (male, rat, plasma, po, read-out: Tmax: Time at the maximum plasma concentration) worked out at 30 min. Moreover, in series [5], the “AUC: Area under the plasma concentration vs. time curve till 24 hours” value came out at 2.79 microgram · h/ml.
